According to patent US6013809A, “Substituted heterocyclic benzocycloalkenes and the use thereof as substances having an analgesic effect” (Gruenenthal GmbH, priority 1997, dated 2000):
Where a name gives a salt, the structure may show the parent alone. Read-outs that look alike come from different tables or passages of the source.

Experiments:
δ-opiate receptor = target: T1, δ-opiate receptor (Rattus norvegicus, UniProt P33533); assay: δ-opiate receptor binding, displacement of (^3H)-2-D-Ala-deltorphin II on rat brain homogenates; design: species or system rat (male Wistar rats)
T1 construct: freshly prepared rat brain was homogenised in 50 mmoles/l Tris-HCl (pH 7.4); from tissue; host or cells: rat brain without cerebellum, pons and medulla oblongata, male Wistar rats; membrane homogenate
Method: Investigations for determining the affinity of compounds of formula I according to the invention for the δ-opiate receptor, which is a crucial prerequisite for analgesic properties, were performed on […] homogenates (rat brain homogenates, without the cerebellum, pons and medulla oblongata, from male Wistar rats). Selected compounds of formula I were used for the detection of δ-opiate receptor properties.
For this purpose, freshly prepared rat brain was homogenised in 50 mmoles/l Tris-HCl (pH 7.4) whilst cooling in ice, and was centrifuged for 10 minutes at 5000 g. After decanting and discarding the supernatant liquor, and renewed take-up and homogenisation of the membrane sediment in 50 mmoles/l Tris-HCl (pH 7.4), the homogenate was subsequently centrifuged for 20 minutes at 20,000 g and 4° C. This washing step was repeated once more. Thereafter, the supernatant liquor was decanted and the membrane sediment was homogenised in cold 50 mmoles/l Tris-HCl, 20% glycerol (w/v), 0.01% bacitracin (w/v) (pH 7.4) and was frozen in aliquots until testing was performed.
For the receptor binding tests, the aliquots were thawed out and diluted 1:10 with the binding test buffer.
The buffer used in the binding test comprised 50 mmoles/l Tris-HCl, 5 mmoles/l MgCl (pH 7.4), supplemented with 0.1% (w/v) bovine serum albumin. […] (^3 H)-2-D-Ala-deltorphin II was used as the radioactive ligand. The proportion of non-specific binding was determined in the presence of 10 mmoles/l naloxon.
The compounds according to the invention were added to further batches in series of concentrations and the displacement of the radioactive ligand from its specific binding site was determined. The respective triple batches were incubated for 90 minutes at 37° C. and were subsequently harvested by means of filtration through glass fibre filters (GF/B) for the determination of the radioactive ligand bound to the membrane homogenate. The radioactivity of the glass fibre filter discs was measured in a β-counter after adding a scintillator.
The affinity of the compounds according to the invention for the δ-opiate receptor was calculated as the IC50 according to the law of mass action by means of nonlinear regression. The K values in Table 1 are given as the mean value±the standard deviation from three mutually independent tests.

cancer patients = conditions: intrathecal, cancer patients on whom morphine no longer had an analgesic effect; cited from earlier work
[1] = 90 minutes at 37° C., pH 7.4, mean value ± standard deviation from three independent tests, read-out: δ-opiate receptor binding Ki
[2] = meaning of the second figure not stated, read-out: δ-opiate receptor binding Ki, second unlabelled figure printed behind the mean ± standard deviation

T1 sequence (P33533 whole entry): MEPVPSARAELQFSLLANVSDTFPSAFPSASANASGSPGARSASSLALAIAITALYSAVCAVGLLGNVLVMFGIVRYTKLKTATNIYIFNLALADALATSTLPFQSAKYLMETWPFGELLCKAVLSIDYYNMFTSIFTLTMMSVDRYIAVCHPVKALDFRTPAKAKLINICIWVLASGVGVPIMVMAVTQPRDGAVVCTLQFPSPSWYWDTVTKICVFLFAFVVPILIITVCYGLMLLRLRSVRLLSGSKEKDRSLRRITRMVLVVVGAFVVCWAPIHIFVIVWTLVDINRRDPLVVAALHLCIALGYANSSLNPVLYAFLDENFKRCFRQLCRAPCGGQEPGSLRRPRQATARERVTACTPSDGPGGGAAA

Molecule: CN(C)CC1=C(c2cccc(O)c2)c2ccccc2[S+]([O-])CC1 (racemic) [Example 3, 3-(4-dimethylaminomethyl-1-oxo-2,3-dihydro-1H-1λ^4-benzo[b]thiepin-5-yl)-phenol hydrochloride]
- Ki (δ-opiate receptor; [1]): 2.1 ± 0.13 nM

Molecule: CN(C)CC1=C(c2cccc(O)c2)c2ccccc2SCC1 [Example 1, 3-(4-dimethylaminomethyl-2,3-dihydro-benzo[b]thiepin-5-yl)-phenol hydrochloride]
- Ki (δ-opiate receptor; [1]): 10.2 ± 4.5 nM

Molecule: CN(C)CC1=C(c2cccc(O)c2)c2ccc3ccccc3c2OC1 [Example 2b, 3-(3-dimethylaminomethyl-2H-benzo[b]chromen-4-yl-phenol hydrochloride]
- Ki (δ-opiate receptor; [1]): 348 ± 65 nM

Molecule: CN(C)CC1=C(c2cccc(O)c2)c2ccc3ccccc3c2SC1 [Example 2c, 3-(2-dimethylaminomethyl-3H-4-thiaphenanthren-1-yl)-phenol hydrochloride]
- Ki (δ-opiate receptor; [1]): 137 ± 13 nM

Molecule: CN(C)CC1=C(c2cccc(O)c2)c2ccc3c(c2OC1)OCCO3 [Example 2d, 3-(7-dimethylaminomethyl-2,3-dihydro-6H-1,4,5,-trioxa-phenanthren-8-yl)-phenol hydrochloride]
- Ki (δ-opiate receptor; [1]): 18.4 ± 1.6 nM

Molecule: CN(C)CC1=C(c2cccc(O)c2)c2ccccc2OCC1 [Example 2e, 3-(4-dimethylaminomethyl-2,3-dihydro-benzo[b]oxepin-5-yl)-phenol hydrochloride]
- Ki (δ-opiate receptor; [1]): 8.5 ± 3 nM

Molecule: COc1ccc2c(c1)OCCC(CN(C)C)=C2c1cccc(O)c1 [Example 2g, 3-(4-dimethylaminomethyl-8-methoxy-2,3-dihydrobenzo[b]oxepin-5-yl)-phenol hydrochloride]
- Ki (δ-opiate receptor; [1]): 6.19 nM
- Ki (δ-opiate receptor; [2]): 6.01 nM

Molecule: COc1ccc2c(c1)SCCC(CN(C)C)=C2c1cccc(O)c1 [Example 2h, 3-(4-dimethylaminomethyl-8-methoxy-2,3-dihydrobenzo[b]thiepin-5-yl)-phenolhydrochloride]
- Ki (δ-opiate receptor; [1]): 2.67 nM
- Ki (δ-opiate receptor; [2]): 1.76 nM

Molecule: CN(C)CC1=C(c2cccc(O)c2)c2ccccc2SC1 [Example 5, 3-(3-dimethylaminomethyl-2H-thiochromen-4-yl)-phenol hydrochloride]
- Ki (δ-opiate receptor; [1]): 68.2 ± 10.1 nM

Molecule: CN(C)CC1=C(c2cccc(O)c2)c2ccccc2OC1 [Example 7, 3-(3-dimethylaminomethyl-2H-chromen-4-yl)-phenol hydrochloride]
- Ki (δ-opiate receptor; [1]): 68.4 ± 8.4 nM

Molecule: CN(C)CC1=C(c2cccc(O)c2)c2cc(O)ccc2OC1(C)C [Example 8, 3-dimethylaminomethyl-4-(3-hydroxy-phenyl)-2,2-di-methyl-2H-chromen-6-ol hydrochloride]
- Ki (δ-opiate receptor; [1]): 393 ± 46 nM

Molecule: COc1ccc2c(c1)[S+]([O-])CCC(CN(C)C)=C2c1cccc(O)c1 (centres unmarked) [Example 9a, 3-(4-dimethylaminomethyl-8-methoxy-1-oxo-2,3-dihydro-1H-1-2-4-benzo[b]thiepin-5-yl)-phenol hydrochloride]
- Ki (δ-opiate receptor; [1]): 1.75 nM

Molecule: CN(C)CC1=C(c2cccc(O)c2)c2ccc(O)cc2SCC1 [Example 11b, 4-dimethylaminomethyl-5-(3-hydroxy-phenyl)-2,3-dihydro-benzo[b]thiepin-8-ol hydrochloride]
- Ki (δ-opiate receptor; [1]): 6.43 nM
- Ki (δ-opiate receptor; [2]): 6.71 nM

Molecule: D-alanine^2 -D-leucine^5 enkeplialin [DADL]
- analgesic effect (cancer patients): long-lasting analgesic effect
